Results on 31 molecules are retold here after patent publication US20250171447A1, “ADENOSINE RECEPTOR ANTAGONISTS, PHARMACEUTICAL COMPOSITIONS AND THEIR USE THEREOF” (Merck Sharp & Dohme LLC, priority 2022, published 2025).

Usually pIC50 stands for the IC50 on a negative log10 scale, so that one unit is a factor of ten.

Structures are written as SMILES. pIC50: −log10 of the molar value.

Chain of human A2A adenosine receptor (P29274 whole entry): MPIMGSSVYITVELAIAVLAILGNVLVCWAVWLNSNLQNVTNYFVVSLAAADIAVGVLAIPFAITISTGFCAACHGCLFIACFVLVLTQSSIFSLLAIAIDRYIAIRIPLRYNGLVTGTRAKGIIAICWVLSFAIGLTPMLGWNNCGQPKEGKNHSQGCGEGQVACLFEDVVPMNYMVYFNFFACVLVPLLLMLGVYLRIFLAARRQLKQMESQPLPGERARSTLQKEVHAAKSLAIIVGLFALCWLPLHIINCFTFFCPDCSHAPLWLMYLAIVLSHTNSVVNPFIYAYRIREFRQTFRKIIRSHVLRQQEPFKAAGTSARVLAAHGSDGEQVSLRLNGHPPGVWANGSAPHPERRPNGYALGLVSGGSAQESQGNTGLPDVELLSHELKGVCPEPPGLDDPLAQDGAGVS

The test has as its target human A2A adenosine receptor (Homo sapiens (Human), UniProt P29274). The experiment in a line: A2A receptor affinity binding assay (radioligand filtration binding or SPA, [3H]SCH58261). As to conditions: membranes from HEK293 or CHO cells expressing human A2A; Method (A) filtration or Method (B) SPA.
Take `COc1cccc2c1nc(N)n1nc([C@H]3C[C@@H](c4ccc([C@@H](N)C(F)(F)F)cn4)C3)nc21` (single isomer, unassigned) [Ex-94]: the pIC50 was 8.42.
Take `COc1cccc2c1nc(N)n1nc([C@H]3C[C@H](c4ccc(C(N)C(F)(F)F)cc4)C3)nc21` (stereo partly drawn) [Ex-79, 2-{trans-3-[4-(1-amino-2,2,2-trifluoroethyl)phenyl]cyclobutyl}-7-methoxy[1,2,4]triazolo[1,5-c]quinazolin-5-amine]: the pIC50 was 8.57.
Consider `COc1cccc2c1nc(N)n1nc([C@H]3C[C@H](c4ncc(C5(N)COC5)cc4C)C3)nc21` [Ex-124, 2-{trans-3-[5-(3-aminooxetan-3-yl)-3-methylpyridin-2-yl]cyclobutyl}-7-methoxy[1,2,4]triazolo[1,5-c]quinazolin-5-amine], for which the pIC50 is 9.40.
For the molecule `COc1cccc2c1nc(N)n1nc(C3CC(c4ccc([C@@H](N)C(F)(F)F)nc4)C3)nc21` (stereo partly drawn) [Ex-96, 2-[(1r,3r)-3-{6-[(1R)-1-amino-2,2,2-trifluoroethyl]pyridin-3-yl}cyclobutyl]-7-methoxy[1,2,4]triazolo[1,5-c]quinazolin-5-amine], the negative-log IC50 (pIC50) is 7.85. Compared with the last molecule, the pIC50 is 1.55 log units lower.
Next, `COc1cccc2c1nc(N)n1nc([C@H]3C[C@@H](c4ccc(C(C)(N)C(F)F)nc4)C3)nc21` (stereo partly shown) [Ex-91, 2-{(1s,3s)-3-[6-(2-amino-1,1-difluoropropan-2-yl)pyridin-3-yl]cyclobutyl}-7-methoxy[1,2,4]triazolo[1,5-c]quinazolin-5-amine]: 8.96; `COc1cccc2c1nc(N)n1nc([C@H]3C[C@H](c4ccc(C(C)(C)N)c(C)n4)C3)nc21` (single isomer, unassigned) [Ex-117, 2-{trans-3-[5-(2-aminopropan-2-yl)-6-methylpyridin-2-yl]cyclobutyl}-7-methoxy[1,2,4]triazolo[1,5-c]quinazolin-5-amine]: 8.09; `COc1cccc2c1nc(N)n1nc([C@H]3C[C@@H](c4ccc([C@@H](N)C(F)(F)F)nc4)C3)nc21` [Ex-95, 2-[(1s,3s)-3-{6-[(1R)-1-amino-2,2,2-trifluoroethyl]pyridin-3-yl}cyclobutyl]-7-methoxy[1,2,4]triazolo[1,5-c]quinazolin-5-amine]: 8.54.
With `COc1cc(F)cc2c1nc(N)n1nc([C@H]3C[C@@H](c4ccccc4C(C)(C)O)C3)nc21` (single isomer, unassigned) [Ex-52], the pIC50 was 8.52.
As for `COc1cccc2c1nc(N)n1nc([C@H]3C[C@H](c4cc(C)c(C(C)(C)N)cn4)C3)nc21` [Ex-81, 2-{trans-3-[5-(2-aminopropan-2-yl)-4-methylpyridin-2-yl]cyclobutyl}-7-methoxy[1,2,4]triazolo[1,5-c]quinazolin-5-amine], the pIC50 was 8.32.
As for `COc1cccc2c1nc(N)n1nc([C@H]3C[C@@H](c4ncc5c(n4)CNC5)C3)nc21` (single isomer, unassigned) [Ex-109, 2-[(cis)-3-(6,7-dihydro-5H-pyrrolo[3,4-d]pyrimidin-2-yl)cyclobutyl]-7-methoxy[1,2,4]triazolo[1,5-c]quinazolin-5-amine], the pIC50 was 7.06.
Take `COc1cccc2c1nc(N)n1nc([C@H]3C[C@H](c4ncc5c(n4)CCNC5)C3)nc21` (single isomer, unassigned) [Ex-110, 7-methoxy-2-[(trans)-3-(5,6,7,8-tetrahydropyrido[4,3-d]pyrimidin-2-yl)cyclobutyl][1,2,4]triazolo[1,5-c]quinazolin-5-amine]: the pIC50 is 7.78.
Regarding `COc1cccc2c1nc(N)n1nc([C@H]3C[C@H](c4ncc(C(C)(C)N)nc4C4CC4)C3)nc21` [Ex-125, 2-((1r,3r)-3-(5-(2-aminopropan-2-yl)-3-cyclopropylpyrazin-2-yl)cyclobutyl)-7-methoxy-[1,2,4]triazolo[1,5-c]quinazolin-5-amine], the pIC50 was 8.59. Compared with the last molecule, the pIC50 is 0.81 log units higher.
Regarding `COc1cccc2c1nc(N)n1nc([C@H]3C[C@@H](c4cc(C)c(C(C)(C)N)cn4)C3)nc21` [Ex-80, 2-{cis-3-[5-(2-aminopropan-2-yl)-4-methylpyridin-2-yl]cyclobutyl}-7-methoxy[1,2,4]triazolo[1,5-c]quinazolin-5-amine], the pIC50 is 8.35.
In the case of `COc1cccc2c1nc(N)n1nc([C@H]3C[C@@H](c4ncc(C5(N)COC5)cc4C)C3)nc21` [Ex-123, 2-{cis-3-[5-(3-aminooxetan-3-yl)-3-methylpyridin-2-yl]cyclobutyl}-7-methoxy[1,2,4]triazolo[1,5-c]quinazolin-5-amine], the pIC50 is 8.74. Against the preceding molecule, the pIC50 is 0.39 log units higher.
Molecule `COc1cccc2c1nc(N)n1nc([C@H]3C[C@@H](c4ncc(C(C)(C)N)cc4Cl)C3)nc21` (single isomer, unassigned) [Ex-88, 2-{cis-3-[5-(2-aminopropan-2-yl)-3-chloropyridin-2-yl]cyclobutyl}-7-methoxy[1,2,4]triazolo[1,5-c]quinazolin-5-amine] showed a pIC50 of 8.18. Compared with the last molecule, the pIC50 is 0.56 log units lower.
Next, `COc1cccc2c1nc(N)n1nc([C@H]3C[C@@H](c4cnc(N5CCN[C@H](C)C5)c(C)c4)C3)nc21` [Ex-101, 7-methoxy-2-(cis-3-{5-methyl-6-[(3R)-3-methylpiperazin-1-yl]pyridin-3-yl}cyclobutyl)[1,2,4]triazolo[1,5-c]quinazolin-5-amine]: 9.15; `COc1cccc2c1nc(N)n1nc([C@H]3C[C@@H](c4ccc(C(N)C(F)(F)F)cc4)C3)nc21` (single isomer, unassigned) [Ex-75, 2-{cis-3-[4-(1-amino-2,2,2-trifluoroethyl)phenyl]cyclobutyl}-7-methoxy[1,2,4]triazolo[1,5-c]quinazolin-5-amine]: 9.52.
Next, `COc1cccc2c1nc(N)n1nc([C@H]3C[C@@H](c4ccc(C(C)(C)N)c(C)n4)C3)nc21` (single isomer, unassigned) [Ex-118, 2-{cis-3-[5-(2-aminopropan-2-yl)-6-methylpyridin-2-yl]cyclobutyl}-7-methoxy[1,2,4]triazolo[1,5-c]quinazolin-5-amine]: 8.32; `COc1cc(F)cc2c1nc(N)n1nc(C3CC3C(C)(C)O)nc21` (stereo not shown) [Ex-28, 2-(2-(5-amino-9-fluoro-7-methoxy-[1,2,4]triazolo[1,5-c]quinazolin-2-yl)cyclopropyl)propan-2-ol]: 8.82.
For the molecule `COc1cccc2c1nc(N)n1nc([C@H]3C[C@@H](c4ccc(C(C)(C)O)cc4)C3)nc21` [Ex-42, 2-(4-((1s,3s)-3-(5-amino-7-methoxy-[1,2,4]triazolo[1,5-c]quinazolin-2-yl)cyclobutyl)phenyl)propan-2-ol], the pIC50 is 9.22.
With `COc1cccc2c1nc(N)n1nc([C@H]3C[C@H](c4ccc([C@@H](N)C(F)(F)F)cn4)C3)nc21` (single isomer, unassigned) [Ex-93], the pIC50 is 8.64.
In turn, `COc1cccc2c1nc(N)n1nc([C@H]3C[C@H](c4ncc(C5(O)COC5)cc4C)C3)nc21` [Ex-120, 3-{6-[trans-3-(5-amino-7-methoxy[1,2,4]triazolo[1,5-c]quinazolin-2-yl)cyclobutyl]-5-methylpyridin-3-yl}oxetan-3-ol] had a pIC50 of 9.30.
Take `COc1cccc2c1nc(N)n1nc([C@H]3C[C@H](c4cnc(C(C)(C)N)c(C)n4)C3)nc21` [Ex-121, 2-((1r,3r)-3-(5-(2-aminopropan-2-yl)-6-methylpyrazin-2-yl)cyclobutyl)-7-methoxy-[1,2,4]triazolo[1,5-c]quinazolin-5-amine]: the pIC50 is 8.43.
`COc1cccc2c1nc(N)n1nc([C@H]3C[C@H](c4ccc(N5CCN(C)CC5)nc4)C3)nc21` [Ex-114, 7-methoxy-2-{trans-3-[6-(4-methylpiperazin-1-yl)pyridin-3-yl]cyclobutyl}[1,2,4]triazolo[1,5-c]quinazolin-5-amine] gave a pIC50 of 8.89.
Turning to `COc1cccc2c1nc(N)n1nc([C@H]3C[C@@H](c4ncc5c(n4)CCNC5)C3)nc21` (single isomer, unassigned) [Ex-111, 7-methoxy-2-[(cis)-3-(5,6,7,8-tetrahydropyrido[4,3-d]pyrimidin-2-yl)cyclobutyl][1,2,4]triazolo[1,5-c]quinazolin-5-amine], the pIC50 was 6.93.
`COc1cccc2c1nc(N)n1nc([C@H]3C[C@@H](c4ccc([C@H](N)C(F)(F)F)cn4)C3)nc21` [Ex-78, 2-(cis-3-{5-[(1S)-1-amino-2,2,2-trifluoroethyl]pyridin-2-yl}cyclobutyl)-7-methoxy[1,2,4]triazolo[1,5-c]quinazolin-5-amine]: the pIC50 is 8.72. This pIC50 lies 1.79 log units higher than the previous one.
For `COc1cccc2c1nc(N)n1nc([C@H]3C[C@@H](c4ccc([C@@]5(C(F)(F)F)CCCCN5)cc4)C3)nc21` [Ex-99, 7-methoxy-2-(cis-3-{4-[(2R)-2-(trifluoromethyl)piperidin-2-yl]phenyl}cyclobutyl)[1,2,4]triazolo[1,5-c]quinazolin-5-amine], the negative-log IC50 (pIC50) is 9.22.
In the case of `COc1cccc2c1nc(N)n1nc([C@H]3C[C@@H](c4cnc(C(C)(C)N)c(C)n4)C3)nc21` [Ex-122, 2-((1s,3s)-3-(5-(2-aminopropan-2-yl)-6-methylpyrazin-2-yl)cyclobutyl)-7-methoxy-[1,2,4]triazolo[1,5-c]quinazolin-5-amine], the pIC50 was 7.80.
For `COc1cccc2c1nc(N)n1nc([C@H]3C[C@@H](c4ccc(C(N)C(F)(F)F)cc4)C3)nc21` (single isomer, unassigned) [Ex-76, 2-{cis-3-[4-(1-amino-2,2,2-trifluoroethyl)phenyl]cyclobutyl}-7-methoxy[1,2,4]triazolo[1,5-c]quinazolin-5-amine], the pIC50 is 9.30.
On to `COc1cccc2c1nc(N)n1nc([C@H]3C[C@H](c4ccc([C@@]5(C(F)(F)F)CCCCN5)cc4)C3)nc21` [Ex-100, 7-methoxy-2-(trans-3-{4-[(2R)-2-(trifluoromethyl)piperidin-2-yl]phenyl}cyclobutyl)[1,2,4]triazolo[1,5-c]quinazolin-5-amine], for which the pIC50 was 8.49.
On to `Cc1nc(C(C)(C)N)cnc1[C@H]1C[C@H](c2nc3c4cccc(Cl)c4nc(N)n3n2)C1` [Ex-127, 2-((1r,3r)-3-(5-(2-aminopropan-2-yl)-3-methylpyrazin-2-yl)cyclobutyl)-7-chloro-[1,2,4]triazolo[1,5-c]quinazolin-5-amine], for which the pIC50 is 8.54.
